Here are results for eight molecules from patent US5328830A, “Potassium channel modulators” (Miles Inc., priority 1992, dated 1994).

Molecules are shown by their SMILES. Values joined by “and” are separate entries in the source; they are usually repeats but may differ in a detail not shown here. Identical values can stand only once. Counter-ions that a name gives are not always drawn. Like-named read-outs stand apart in the source and are kept apart here.

The test system of assay [1] is CMPD-I-sensitive, K^+ channel binding site. The assay can be described thus: [^3 H]CMPD-I ligand binding to intact RINm5F cells. The arrangement: species or system rat. The settings on record: for inhibition of [^3 H]CMPD-I binding: result in words. Here is the method: The cells were fed three times a week and passed weekly with 0.25% trypsin/0.02% EDTA (JRH Biosciences, Lenexa, Kans.). For intact cell binding experiments, RINm5F cells were plated onto 60 mm polystyrene petri dishes (Corning) at 5×10^6 cells/dish and grown for 3 days without a change of media. Alternatively, cells were seeded 1×10^6 cells/dish and grown for 7 days with the last feeding two days prior to use. Final cell density was 10-20 ×10^6 cells/dish. […] Intact cell binding was performed with the cells attached to the dishes. Binding was terminated by three successive 3 ml washes of cold (4° C.) buffer. Cells were removed from the dish in 1.6 ml of 0.5 N NaOH, briefly sonicated and radioactivity was quantitated with a liquid scintillation counter using 10 ml cocktail (Ultima Gold, Packard). Statistical analysis to determine KD and BMax was accomplished using nonlinear regression (Enzfitter, Elsevier-Biosoft, Cambridge, UK). IC50 values were determined using a sigmoidal fit of mean percent inhibition versus log of concentration. Petri dishes were removed from the incubator, media was aspirated and the cells were washed (x2) with 3 ml oxygenated (5%CO2 /95%O2) Hanks Buffer (37° C.). Cells were allowed to equilibrate in buffer at least 10 minutes. […] Dishes were incubated at 37° C., in an atmosphere of 5% CO2 /95% for 90 minutes. Bound radioligand was separated from free by aspirating the buffer and washing the cells rapidly (x3) with 3 ml ice cold (4° C.) Hanks Buffer. Cells were then removed and solubilized with the addition of 1.6 ml 0.5N NaOH. Dishes were mounted on an orbit shaker (Lab Line) and rotated at 100-125 rpm for 20-45 minutes until the cells would detach from the plates. […] The solutions were vortexed and an aliquot (10 μ`) from each tube was removed for total protein determination. The remainder (1.59 ml) was transferred to a 20 ml vial with 10 ml Ultima Gold (Packard) scintillation cocktail and mixed until the aqueous phase cleared. Each sample was counted for at least one minute by a liquid scintillation system set for counting tritium. Total protein content of each dish was determined by the method of Bradford with bovine serum albumin used as the standard. […] Percent Inhibition of specific binding by test compounds was determined by calculating: 100-[(Cpm (with Drug)-Nonspecific cpm.div.Specific cpm)×100](Basic program) Free and Bound radioligand was calculated (Basic program) and a saturation curve based on a nonlinear regression fit of the data was used to determine a KD (nM) and Bmax (fmoles/mg total cellular protein) of binding (Enzfitter, Id.). Mean percent inhibition of binding at the concentrations tested for each drug was fit to a sigmoidal function. IC50 values were calculated from the plot of the fraction of maximal inhibition versus Log of concentration (Enzfitter, Id.).

The next assay relates to rat aorta. The assay can be described thus: Aortic relaxation of rat aortic rings precontracted with 20 mM KCl. Particulars: aortae depolarized with 20 mM KCl. The protocol: Male Long-Evans Hooded rats (200-400 g) were sacrificed by acute decapitation. Thoracic aortae were rapidly removed and placed in an oxygenated (100% O2) physiological saline solution (PSS) (pH 7.4) of the following composition in mM: NaCl, 130; KCl, 5.9; MgCl2, 1.2; CaCl2, 0.8; HEPES, 22 and glucose, 11.1. The aortae were trimmed of fat, cut into rings 3 mm in length, mounted in an organ bath containing 10 ml of oxygenated PSS at 37° C. and stretched to a resting tension of 2.0 g. The aortae were depolarized with 20 mM KCl and after contractile response had stabilized, vasodilators were added. The vasorelaxation produced by the drugs was reversed by glyburide (a potent antagonist of ATP-dependent K^+ channels, as described above). Prior to the aortic preparation, the instrument to measure changes in aortic tension was set up and each channel was statically calibrated for linearity using Class S metric weights from 1 to 5 grams, the range consistent with changes observed in this study. This instrument translates isometric changes in tension over time to an electrical signal expressed as a tracing that can be quantified by peak height. […] After a 90 minute equilibration the resting tension was readjusted to the baseline level. […] Percent relaxation of putative K^+ channel agonists was calculated as follows: 100-[(Peak Height (mm) after Drug.div.Initial Peak Height (mm) after 20 mM K^+)×100] […]

As to `Nc1cc(N2CCCCC2)nc(N)[n+]1OS(=O)(=O)[O-]` [minoxidil sulfate], the “inhibition of [^3 H]CMPD-I binding” value in assay [1] is reported as “inhibits binding”.

For the molecule `COc1ccc(Cl)cc1C(=O)NCCc1ccc(S(=O)(=O)NC(=O)NC2CCCCC2)cc1` [glyburide], in the assay with rat aorta, the “reversal of vasorelaxation produced by the drugs” value is reported as “reversed”. Further, in assay [1], the “inhibition of [^3 H]CMPD-I binding” value is “inhibit binding”.

In the case of `[3H]c1cc([3H])c(NC(=C[N+](=O)[O-])NC(C)C(C)(C)C)c(OCC)c1` (single isomer, unassigned) [[^3 H]CMPD-I], the Kd is 0.7 nM in assay [1] (Scatchard analysis, single binding site (FIG. 3), read-out: apparent KD); 2 nM in assay [1] (determined by saturation analysis, read-out: KD); 2.3 nM and 2.4 nM in assay [1] (two additional experiments, read-out: KD).

Turning to `CC[N+](CC)(CC)CC` [TEA], the “inhibition of [^3 H]CMPD-I binding” value in assay [1] is “inhibit binding”.

For `CC(N/C(=N\C#N)Nc1ccncc1)C(C)(C)C` (centres unmarked) [pinacidil], the “inhibition of [^3 H]CMPD-I binding” value in assay [1] is “inhibited”.

With `C=C[C@H]1C[N@@]2CC[C@H]1C[C@H]2[C@H](O)c1ccnc2ccc(OC)cc12` [quinine], the “inhibition of [^3 H]CMPD-I binding” value in assay [1] is “inhibit binding”.

On to `Cc1cnc(C(=O)NCCc2ccc(S(=O)(=O)NC(=O)NC3CCCCC3)cc2)cn1` [glypizide], for which the “inhibition of [^3 H]CMPD-I binding” value in assay [1] was “inhibit binding”.

Consider `C=C[C@H]1C[N@@]2CC[C@H]1C[C@@H]2[C@@H](O)c1ccnc2ccc(OC)cc12` [quinidine], for which, in assay [1], the “inhibition of [^3 H]CMPD-I binding” value is given as “inhibit binding”.
